Reference: article PMC9313321 (Biomedicines, 2022)

Tests used:
[1] = Radical scavenging activity (DPPH method); conditions: read-out: Antioxid. EC50, 30 min, absorbance 517 nm
Protocol: To determine the radical scavenging activity (antioxidant activity) of the novel RIV–BIM hybrids, the DPPH method was performed as previously described in the literature [49]. Working solutions of 20 mg of the ligands were prepared daily in 10 mL of MeOH (with a 10% of DMSO). A working solution of 2 mg DPPH in 100 mL MeOH was prepared daily, and its absorbance was checked to be between 0.75 and 1.00 (a.u.). […] Each one of the calibrate points was kept for 30 min under darkness to allow the ligands to exert their antioxidant effects. After 30 min, an auto-zero was performed with MeOH in both sample and reference cells, using a UV–Vis spectrophotometer. […] The antioxidant activity (%AA) for each point was calculated using the following equation: %AA=ADPPH−Aligand/ADPPH×100
The radical scavenging activity of the RIV–BIM compounds was determined by a spectrophotometric method involving the 2,2-diphenyl-1-picrylhydrazyl (DPPH) free radical [35, 64].

[2] = biological target: T1, Aβ42 self-aggregation (Homo sapiens, UniProt P05067); assay: biochemical; type: biochemical; conditions: read-out: Aβ42 Self-Aggreg. Inhib
T1 construct: Beta-amyloid protein, fragment 1-42; purchased GeneCust
Protocol: (§1) The inhibition of Aβ42 aggregation and Cu(II)-induced Aβ42 aggregation, carried out by the RIV–BIM hybrids, was studied using a reported method based on the fluorescence emission of thioflavin T [52, 53].
(§2) Solutions of phosphate buffer 0.215 M at pH = 8.00, Na2CO3 300 μM in distilled water, NaOH 250 mM in distilled water, glycine-NaOH 50 mM buffer at pH = 8.50 and CuCl2 240 μM in phosphate buffer were prepared. Stock solutions of […] of the RIV–BIM compounds were prepared in MeOH (with 20% DMSO). Working solutions of 240 μM of the RIV–BIM hybrids were prepared by the proper dilution of their stock solutions with phosphate buffer. A working solution of glycine-NaOH 50 mM buffer at pH = 8.50 containing 5 μM of thioflavin T (ThT) was prepared daily. Aβ42 (GeneCust) was pre-treated with 1,1,1,3,3,3-hexafluoro-2-propanol (HFIP) to obtain a solution of 0.149 mM by brief sonication and vortexing, which was kept covered overnight at room temperature. From the Aβ42 solution, aliquots of 250 μL were placed into Eppendorf tubes under ice and set to evaporate inside a hood at room temperature overnight. When the contents of the Eppendorf tubes were dried, the Aβ42 aliquots were stored at −20 °C until needed. To obtain the Aβ42 working solution, the Aβ42 aliquots were dissolved with a freshly prepared mixture of 69.5 μL of CH3CN/Na2CO3 (300 μM)/NaOH (250 mM) (48.3/48.3/3.4, v/v/v) by brief sonication and vortexing to obtain an Aβ42 solution of 531.24 μM. To this solution, 392.5 μL of phosphate buffer was added, achieving an Aβ42 working solution of 80 μM. To prepare the incubations, three replicates of Aβ42 alone (30 μL Aβ42 80 μM + 30 μL phosphate buffer), Aβ42 with RIV–BIM (30 μL Aβ42 80 μM + 10 μL RIV–BIM 240 μM + 20 μL phosphate buffer), Aβ42 with copper (30 μL Aβ42 80 μM + 10 μL CuCl2 240 μM + 20 μL phosphate buffer) and Aβ42 with copper and RIV–BIM (30 μL Aβ42 80 μM + 10 μL CuCl2 240 μM + 10 μL RIV–BIM 240 μM + 10 μL phosphate buffer) were placed in Eppendorfs. To obtain the blank solutions, a similar number of Eppendorfs, replacing Aβ42 with phosphate buffer, were prepared. Incubations were performed in a water bath at 37 °C with agitation for 24 h. Afterwards, 180 μL of glycine-NaOH 50 mM buffer at pH = 8.50 containing 5 μM of ThT was added to each Eppendorf and then they were vortexed. Finally, 200 μL of solution from each Eppendorf was placed in the wells of a microplate and fluorescence measurements were monitored using a Spectramax Gemini EM (Molecular Devices) fluorimeter with an excitation wavelength of 446 nm and an emission wavelength of 485 nm. Blank signals were subtracted from the corresponding samples. The fluorescence intensity of the Aβ42 + RIV–BIM solution was compared to that of the Aβ42 solution to obtain the inhibition of Aβ42 self-aggregation for each compound. The fluorescence intensity of the Aβ42 + Cu(II) + RIV–BIM solution was compared to that of the Aβ42 + Cu(II) solution to obtain the inhibition of the Cu(II)-induced Aβ42 aggregation for each hybrid.
(§3) The anti-amyloidogenic capacity of the compounds was assessed in vitro using the thioflavin T (ThT) method. To record fluorescence emission, excitation (446 nm) and emission (485 nm) wavelengths were used. When ThT binds to amyloid fibrils, an increase in absorbance and emission of this dye occurs with concomitant red shifts of the respective spectra. The percent of inhibition of Aβ42 aggregation is shown in Table 1, and the assays were performed in the presence of 20 μM of inhibitor. These concentration conditions were used to overcome solubility problems of some compounds in the aqueous phosphate buffer working medium. […]. […]

[3] = biological target: T2, Cu(II)-induced Aβ42 aggregation (Homo sapiens, UniProt P05067); assay: Inhibition of Cu(II)-induced Aβ42 aggregation (thioflavin T fluorescence); type: biochemical; conditions: read-out: Aβ42 Cu-Ind. Aggreg. Inhib
T2 construct: Beta-amyloid protein, fragment 1-42; purchased GeneCust
T2 sequence (P05067 672-713 limits assumed): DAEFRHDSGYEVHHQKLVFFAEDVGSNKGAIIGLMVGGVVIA
Protocol: as §1, §2, §3

[4] = tested on: Aβ; set-up: method as in PMID 32781220; conditions: 50 μM concentration; cited from earlier work

T1 sequence (P05067 672-713 limits assumed): as above

Structure (SMILES) | EC50 [1] | inhibition at 20 µM [2] | inhibition at 20 µM [3] | Aβ inhibition [4]
Cc1c(O)c(=O)ccn1C [DMHP, reference compound] | 157 ± 8 µM | – | – | –
Nc1c2c(nc3ccccc13)CCCC2 [Tacrine, reference compound] | – | 28.1% | – | –
COc1cc(/C=C/C(=O)CC(=O)/C=C/c2ccc(O)c(OC)c2)ccc1O [Curcumin, reference compound] | – | 65.7% | 62.7% | 62%
